Measured values reported in patent US7820623B2 (priority 2006, dated 2010).
Bridge positions count the residues as written; N and C are the ends. Square brackets hold non-standard residues; d marks the D form. Peptide text beside a SMILES is read from it. 1Nal = N[C@@H](Cc1cccc2ccccc12)C(=O)O

Assays:
[1] = system: thapsigargin-induced IFN-g production in human whole blood; format: cell-based; settings: read-out: Analogue Activity (IC50) WB/IFNg
[2] = system: thapsigargin-induced IL-2 production in human whole blood; settings: read-out: Analogue Activity (IC50) WB/IL-2

Structure (SMILES)	IC50 [1] [nM]	IC50 [2] [nM]
CC[C@H](C)[C@@H]1NC(=O)[C@H](CCCCN)NC(=O)[C@@H](NC(=O)[C@H](CCCCN)NC(=O)[C@@H](NC(=O)[C@H](CC(N)=O)NC(=O)[C@H](CCC(=O)O)NC(=O)[C@@H](NC(=O)[C@@H](NC(=O)CN)C(C)C)[C@@H](C)CC)C(C)C)CSSC[C@@H]2NC(=O)[C@H](CCCCN)NC(=O)CNC(=O)[C@H](Cc3ccccc3)NC(=O)[C@H](CCCNC(=N)N)NC(=O)[C@H](CCSC)NC(=O)CNC(=O)[C@H](C)NC(=O)[C@H](CCCCN)NC(=O)[C@H](CCCCN)NC(=O)[C@@H]3CSSC[C@@H](C(=O)N[C@H](C(=O)N4CCC[C@H]4C(=O)N[C@@H](CCCCN)C(=O)O)[C@@H](C)O)NC(=O)[C@H](Cc4c[nH]cn4)NC(=O)[C@H](CSSC[C@H](NC(=O)[C@H](CCC(N)=O)NC(=O)[C@H](CCCNC(=N)N)NC(=O)[C@H](CO)NC1=O)C(=O)N[C@@H](CC(C)C)C(=O)N[C@@H](CCC(=O)O)C(=O)N1CCC[C@H]1C(=O)N3)NC(=O)[C@H](CCCCN)NC(=O)CNC(=O)[C@H](CC(N)=O)NC(=O)[C@H](CCSC)NC2=O [I4E] (H-GVIENVKCKISRQCLEPCKKAGMRFGKCMNGKCHCTPK-OH; disulfide 8-28, 14-33, 18-35)	0.191	0.218
CC[C@H](C)[C@@H]1NC(=O)[C@H](CCCCN)NC(=O)[C@@H](NC(=O)[C@H](CCCCN)NC(=O)[C@@H](NC(=O)[C@H](CC(N)=O)NC(=O)[C@H](Cc2cccc3ccccc23)NC(=O)[C@@H](NC(=O)[C@@H](NC(=O)CN)C(C)C)[C@@H](C)CC)C(C)C)CSSC[C@@H]2NC(=O)[C@H](CCCCN)NC(=O)CNC(=O)[C@H](Cc3ccccc3)NC(=O)[C@H](CCCNC(=N)N)NC(=O)[C@H](CCSC)NC(=O)CNC(=O)[C@H](C)NC(=O)[C@H](CCCCN)NC(=O)[C@H](CCCCN)NC(=O)[C@@H]3CSSC[C@@H](C(=O)N[C@H](C(=O)N4CCC[C@H]4C(=O)N[C@@H](CCCCN)C(=O)O)[C@@H](C)O)NC(=O)[C@H](Cc4c[nH]cn4)NC(=O)[C@H](CSSC[C@H](NC(=O)[C@H](CCC(N)=O)NC(=O)[C@H](CCCNC(=N)N)NC(=O)[C@H](CO)NC1=O)C(=O)N[C@@H](CC(C)C)C(=O)N[C@@H](CCC(=O)O)C(=O)N1CCC[C@H]1C(=O)N3)NC(=O)[C@H](CCCCN)NC(=O)CNC(=O)[C@H](CC(N)=O)NC(=O)[C@H](CCSC)NC2=O [I4Nal] (H-GVI[1Nal]NVKCKISRQCLEPCKKAGMRFGKCMNGKCHCTPK-OH; disulfide 8-28, 14-33, 18-35)	1.01	1.09
CC[C@H](C)[C@@H]1NC(=O)[C@H](CCCCN)NC(=O)[C@@H](NC(=O)[C@H](CCCCN)NC(=O)[C@@H](NC(=O)[C@H](CC(N)=O)NC(=O)[C@H](CCCNC(=N)N)NC(=O)[C@@H](NC(=O)[C@@H](NC(=O)CN)C(C)C)[C@@H](C)CC)C(C)C)CSSC[C@@H]2NC(=O)[C@H](CCCCN)NC(=O)CNC(=O)[C@H](Cc3ccccc3)NC(=O)[C@H](CCCNC(=N)N)NC(=O)[C@H](CCSC)NC(=O)CNC(=O)[C@H](C)NC(=O)[C@H](CCCCN)NC(=O)[C@H](CCCCN)NC(=O)[C@@H]3CSSC[C@@H](C(=O)N[C@H](C(=O)N4CCC[C@H]4C(=O)N[C@@H](CCCCN)C(=O)O)[C@@H](C)O)NC(=O)[C@H](Cc4c[nH]cn4)NC(=O)[C@H](CSSC[C@H](NC(=O)[C@H](CCC(N)=O)NC(=O)[C@H](CCCNC(=N)N)NC(=O)[C@H](CO)NC1=O)C(=O)N[C@@H](CC(C)C)C(=O)N[C@@H](CCC(=O)O)C(=O)N1CCC[C@H]1C(=O)N3)NC(=O)[C@H](CCCCN)NC(=O)CNC(=O)[C@H](CC(N)=O)NC(=O)[C@H](CCSC)NC2=O [I4R] (H-GVIRNVKCKISRQCLEPCKKAGMRFGKCMNGKCHCTPK-OH; disulfide 8-28, 14-33, 18-35)	0.175	0.168
CC[C@H](C)[C@H](NC(=O)[C@@H](NC(=O)CN)C(C)C)C(=O)N[C@H](C(=O)N[C@@H](CC(N)=O)C(=O)N[C@H](C(=O)N[C@@H](CCCCN)C(=O)N[C@H]1CSSC[C@@H]2NC(=O)[C@H](CCCCN)NC(=O)CNC(=O)[C@H](Cc3ccccc3)NC(=O)[C@H](CCCNC(=N)N)NC(=O)[C@H](CCSC)NC(=O)CNC(=O)[C@H](C)NC(=O)[C@H](CCCCN)NC(=O)[C@H](CCCCN)NC(=O)[C@@H]3CSSC[C@@H](C(=O)N[C@H](C(=O)N4CCC[C@H]4C(=O)N[C@@H](CCCCN)C(=O)O)[C@@H](C)O)NC(=O)[C@H](Cc4c[nH]cn4)NC(=O)[C@H](CSSC[C@H](NC(=O)[C@H](CCC(N)=O)NC(=O)[C@H](CCCNC(=N)N)NC(=O)[C@H](CO)NC(=O)[C@H](C)NC(=O)[C@H](CCCCN)NC1=O)C(=O)N[C@@H](CC(C)C)C(=O)N[C@@H](CCC(=O)O)C(=O)N1CCC[C@H]1C(=O)N3)NC(=O)[C@H](CCCCN)NC(=O)CNC(=O)[C@H](CC(N)=O)NC(=O)[C@H](CCSC)NC2=O)C(C)C)[C@@H](C)CC [I10A] (H-GVIINVKCKASRQCLEPCKKAGMRFGKCMNGKCHCTPK-OH; disulfide 8-28, 14-33, 18-35)	0.0296	0.05
CC[C@H](C)[C@H](NC(=O)[C@@H](NC(=O)CN)C(C)C)C(=O)N[C@H](C(=O)N[C@@H](CC(N)=O)C(=O)N[C@H](C(=O)N[C@@H](CCCCN)C(=O)N[C@H]1CSSC[C@@H]2NC(=O)[C@H](CCCCN)NC(=O)CNC(=O)[C@H](Cc3ccccc3)NC(=O)[C@H](CCCNC(=N)N)NC(=O)[C@H](CCSC)NC(=O)CNC(=O)[C@H](C)NC(=O)[C@H](CCCCN)NC(=O)[C@H](CCCCN)NC(=O)[C@@H]3CSSC[C@@H](C(=O)N[C@H](C(=O)N4CCC[C@H]4C(=O)N[C@@H](CCCCN)C(=O)O)[C@@H](C)O)NC(=O)[C@H](Cc4c[nH]cn4)NC(=O)[C@H](CSSC[C@H](NC(=O)[C@H](CCC(N)=O)NC(=O)[C@H](CCCNC(=N)N)NC(=O)[C@H](CO)NC(=O)[C@H](CCC(=O)O)NC(=O)[C@H](CCCCN)NC1=O)C(=O)N[C@@H](CC(C)C)C(=O)N[C@@H](CCC(=O)O)C(=O)N1CCC[C@H]1C(=O)N3)NC(=O)[C@H](CCCCN)NC(=O)CNC(=O)[C@H](CC(N)=O)NC(=O)[C@H](CCSC)NC2=O)C(C)C)[C@@H](C)CC [I10E] (H-GVIINVKCKESRQCLEPCKKAGMRFGKCMNGKCHCTPK-OH; disulfide 8-28, 14-33, 18-35)	2.74	2.57
CC[C@H](C)[C@H](NC(=O)[C@@H](NC(=O)CN)C(C)C)C(=O)N[C@H](C(=O)N[C@@H](CC(N)=O)C(=O)N[C@H](C(=O)N[C@@H](CCCCN)C(=O)N[C@H]1CSSC[C@@H]2NC(=O)[C@H](CCCCN)NC(=O)CNC(=O)[C@H](Cc3ccccc3)NC(=O)[C@H](CCCNC(=N)N)NC(=O)[C@H](CCSC)NC(=O)CNC(=O)[C@H](C)NC(=O)[C@H](CCCCN)NC(=O)[C@H](CCCCN)NC(=O)[C@@H]3CSSC[C@@H](C(=O)N[C@H](C(=O)N4CCC[C@H]4C(=O)N[C@@H](CCCCN)C(=O)O)[C@@H](C)O)NC(=O)[C@H](Cc4c[nH]cn4)NC(=O)[C@H](CSSC[C@H](NC(=O)[C@H](CCC(N)=O)NC(=O)[C@H](CCCNC(=N)N)NC(=O)[C@H](CO)NC(=O)[C@H](CCCNC(=N)N)NC(=O)[C@H](CCCCN)NC1=O)C(=O)N[C@@H](CC(C)C)C(=O)N[C@@H](CCC(=O)O)C(=O)N1CCC[C@H]1C(=O)N3)NC(=O)[C@H](CCCCN)NC(=O)CNC(=O)[C@H](CC(N)=O)NC(=O)[C@H](CCSC)NC2=O)C(C)C)[C@@H](C)CC [I10R] (H-GVIINVKCKRSRQCLEPCKKAGMRFGKCMNGKCHCTPK-OH; disulfide 8-28, 14-33, 18-35)	0.474	0.307
CC[C@H](C)[C@@H]1NC(=O)[C@H](CCCCN)NC(=O)[C@@H](NC(=O)[C@H](C)NC(=O)[C@@H](NC(=O)[C@H](CC(N)=O)NC(=O)[C@@H](NC(=O)[C@@H](NC(=O)[C@@H](NC(=O)CN)C(C)C)[C@@H](C)CC)[C@@H](C)CC)C(C)C)CSSC[C@@H]2NC(=O)[C@H](CCCCN)NC(=O)CNC(=O)[C@H](Cc3ccccc3)NC(=O)[C@H](CCCNC(=N)N)NC(=O)[C@H](CCSC)NC(=O)CNC(=O)[C@H](C)NC(=O)[C@H](CCCCN)NC(=O)[C@H](CCCCN)NC(=O)[C@@H]3CSSC[C@@H](C(=O)N[C@H](C(=O)N4CCC[C@H]4C(=O)N[C@@H](CCCCN)C(=O)O)[C@@H](C)O)NC(=O)[C@H](Cc4c[nH]cn4)NC(=O)[C@H](CSSC[C@H](NC(=O)[C@H](CCC(N)=O)NC(=O)[C@H](CCCNC(=N)N)NC(=O)[C@H](CO)NC1=O)C(=O)N[C@@H](CC(C)C)C(=O)N[C@@H](CCC(=O)O)C(=O)N1CCC[C@H]1C(=O)N3)NC(=O)[C@H](CCCCN)NC(=O)CNC(=O)[C@H](CC(N)=O)NC(=O)[C@H](CCSC)NC2=O [K7A] (H-GVIINVACKISRQCLEPCKKAGMRFGKCMNGKCHCTPK-OH; disulfide 8-28, 14-33, 18-35)	0.0591	0.0675
CC[C@H](C)[C@@H]1NC(=O)[C@H](CCCCN)NC(=O)[C@@H](NC(=O)[C@H](CCC(=O)O)NC(=O)[C@@H](NC(=O)[C@H](CC(N)=O)NC(=O)[C@@H](NC(=O)[C@@H](NC(=O)[C@@H](NC(=O)CN)C(C)C)[C@@H](C)CC)[C@@H](C)CC)C(C)C)CSSC[C@@H]2NC(=O)[C@H](CCCCN)NC(=O)CNC(=O)[C@H](Cc3ccccc3)NC(=O)[C@H](CCCNC(=N)N)NC(=O)[C@H](CCSC)NC(=O)CNC(=O)[C@H](C)NC(=O)[C@H](CCCCN)NC(=O)[C@H](CCCCN)NC(=O)[C@@H]3CSSC[C@@H](C(=O)N[C@H](C(=O)N4CCC[C@H]4C(=O)N[C@@H](CCCCN)C(=O)O)[C@@H](C)O)NC(=O)[C@H](Cc4c[nH]cn4)NC(=O)[C@H](CSSC[C@H](NC(=O)[C@H](CCC(N)=O)NC(=O)[C@H](CCCNC(=N)N)NC(=O)[C@H](CO)NC1=O)C(=O)N[C@@H](CC(C)C)C(=O)N[C@@H](CCC(=O)O)C(=O)N1CCC[C@H]1C(=O)N3)NC(=O)[C@H](CCCCN)NC(=O)CNC(=O)[C@H](CC(N)=O)NC(=O)[C@H](CCSC)NC2=O [K7E] (H-GVIINVECKISRQCLEPCKKAGMRFGKCMNGKCHCTPK-OH; disulfide 8-28, 14-33, 18-35)	0.068	0.058
